According to patent US11337427B2, “Antimicrobial agents and their use in therapy” (priority 2013, dated 2022):

Experiments:
[1] = tested on: Saccharomyces cerevisiae wild type BY4743; assay: Yeast growth study in microplates (OD 600 nm); settings: for concentration required to retard growth of the yeast cells: agent alone, wild-type yeast
Experimental: Growth studies on wild-type (wt) yeast and the Hog1 mutant were performed. […] The OD (600 nm) in each well was read every 20 minutes using an integrated Beckman Coulter Paradigm microplate reader. The growth of the yeast strains in the microplates was monitored for approximately 25 hours.

[2] = tested on: Staphylococcus aureus MRSA 1096; assay: MIC assay; settings: starting concentration 150 μg/ml
[3] = tested on: gram negative bacteria (Pseudomonas aeruginosa ATCC 15692, Acinetobacter baumanni ATCC 19606, Escherichia coli ATCC 25922, Pseudomonas aeruginosa TO-5A); assay: Robotic MIC assay, gram negative bacteria; settings: FIG. 4
[4] = tested on: Staphylococcus aureus NCTC 6571; assay: MIC assay; settings: starting concentration 150 μg/ml
[5] = tested on: E. coli NCIMB 12210; settings: E. coli NCIMB 12210, FIG. 7
[6] = tested on: gram positive bacteria (Enterococcus faecium CCUG 37832, Enterococcus faecium CTC 492, Micrococcus luteus ATCC 9341); assay: Robotic MIC assay, gram positive bacteria; settings: FIG. 5
[7] = tested on: Yeast cells (Saccharomyces cerevisiae); assay: Cellular import of FAM-labelled ATX-101 (laser scanning microscopy); assay type: cell-based; settings: FAM-labelled peptide, 1-2 minutes incubation
Experimental: Yeast cells (Saccharomyces cerevisiae) were grown in LB media. A fluorescently labelled APIM peptide (ATX-101-FAM) was added to the media and incubated for 1-2 minutes before an aliquot of cells was removed and analyzed on a Zeiss LSM 510 Meta laser scanning microscope equipped with a Plan-Apochromate 63×/1.4 oil immersion objective.

[8] = tested on: E. coli BL21 (ripl); assay: Overexpression of APIM peptides in E. coli (growth, OD); assay type: cell-based; settings: induced with 1 mM IPTG; no cell-penetrating peptide
Excerpt: In order to verify further that the anti-microbial effect of the APIM peptides arises from the APIM sequence, peptides containing only the APIM sequence (i.e. without a cell-penetrating peptide) were over-expressed in E. coli using the expression vector pET28. The APIM peptide was expressed alone or as part of a fusion protein with EYFP. Expression of EYFP alone was used as a control.
The expression vectors containing the respective peptides were transfected into the bacterial strain E. coli BL21 (ripl). Single colonies, 4-6 of each strain, were inoculated in […] LB media (+Km/Clm) in 96 wells plates, and incubated at 37° C. Overnight cultures were diluted 1:100 and grown for 1 h before induction with 1 mM IPTG (initiating peptide expression). OD was measured every hour.

In the case of N.N.[Cl][Pt][Cl] [cisplatin], the “concentration required to retard growth of the yeast cells” value [1] is reported as 500 µM, the “effect on growth of the yeast cells” value ([1]; cisplatin 125 μM alone) is reported as “not sufficient to retard growth” and the “effect on growth of the yeast cells” value ([1]; cisplatin 2000 μM alone) is reported as “growth is not completely inhibited”.
In the case of Ac-MDRWLVKWKKKRKIRRRRRRRRRRR [ATX-101], the Factor of inhibition [2] is reported as 0.0625, the “concentration required to retard growth of the yeast cells” value [1] is reported as at least 20 µM and the “concentration from which growth is inhibited” value [3] is reported as “about 1 μM”. The Factor of inhibition [4] was 1, the “reduction of the MIC for novobiocin” value [5] was 16 fold and the “concentration from which growth is inhibited” value [6] was “about 1 μM”. For the same compound, the cellular import [7] was “imported into yeast cells”.
In the case of “RFSLK (APIM variant) [APIM variant over-expressed in E. coli]”, the “effect of overexpression on bacterial growth” value (“effect of overexpression” below) [8] is reported as “particularly effective”.
For “RWLTK (APIM variant) [APIM variant over-expressed in E. coli]”, the “effect of overexpression” value [8] was “particularly effective”.
RWLVK (APIM variant) was tested, and the “effect of overexpression” value [8] was “inhibits bacterial growth”.
“RWLVP (APIM variant) [APIM variant over-expressed in E. coli]” was tested, and the “effect of overexpression” value [8] was “particularly effective”.
